Laboratory results from patent publication US6733777B2, “Cationic reagents of transfection” (Qiagen GmbH, priority 1996, dated 2004).
Values joined by “and” are separate entries in the source; they are usually repeats but may differ in a detail not shown here. Equal entries are not always repeated. Where two headings read alike, the source gives them in different places.

Tests used:
HeLaS3 cells [1] = conditions: liposome with DOPE, 0.5 μg pCMVβ
Experimental: (§1) Without sonication, liposomes were prepared at 60° C. by combining DOPE with one of the following:
(§2) The resulting liposomes were used to transfect HeLaS3 and Huh7 cells in vitro with the reporter plasmid pCMVβ (Clontech). Transfection efficiency values, obtained by taking OD measurements after cell-lysis and β-Gal activity assay, were compared to efficiencies obtained in parallel with a commercially available liposome-preparation (Lipofectamine, Gibco LTI) and given as percentage of Lipofectamine efficiency. In each transfection, 0.5 μg of pCMVβ (isolated with EndoFree, QIAGEN) was used per well of a 96 well plate. The DNA was diluted to 50 μl with DMEM medium (Gibco LTI) and combined with 1, 2, 3 and 4 μl of the liposome preparations subsequently diluted to 50 μl with DMEM medium. DNA and liposome solutions were mixed and applied to the cells for 6 hours at 37° C., 5% CO2. Afterwards, medium was changed to DMEM containing 10% fetal calf serum. Cells were lysed after 48 h incubation at 37° C., 5% CO2.
(§3) Twofold determinations each were performed. The values were averaged and the highest efficiency (optimum) within a row was given as percentage value of the highest efficiency (optimum) obtained with Lipofectamine.

Huh7 cells [2] = conditions: liposome with DOPE, 0.5 μg pCMVβ
Experimental: as §1, §2, §3

HeLaS3 cells [3] = assay: Transfection of HeLaS3 cells with pCMVβ, β-Gal activity assay (variation of counter ion); assay type: cell-based; conditions: 10-2-10 cytofectin with the given counter ion, liposome with DOPE, 0.5 μg pCMVβ
Experimental: Liposomes were used to transfect HeLaS3 cells in vitro with the reporter plasmid pCMVβ (Clontech). […] Cells were incubated for 48 hours at 37° C., 5% CO2 and then lysed.
In similar studies in HeLaS3 cells, the same vector was transfected with liposomes comprising bromide counter ions and the cytofectin, 10-2-10 Ethandiyl-1,2-bis(decyl dimethylammonium).

Huh7 cells [4] = system: Huh7 cells
Experimental: The resulting liposomes were used to transfect Huh7 cells in vitro with the reporter plasmid pCMVβ (Clontech). Transfection efficiencies, as obtained by OD measurements after cell-lysis and β-Gal activity assay, were compared to efficiencies obtained in parallel with a commercially available liposome-preparation (Lipofectamine, Gibco LTI) and given as percentage of Lipofectamine efficiency. For each transfection, 0.5 μg of pCMVβ (isolated with EndoFree, QIAGEN) was used per well of a 96 well plate. The DNA was diluted to 50 μl with DMEM medium (Gibco LTI) and combined with 1, 2, 3 and 4 μl of the liposome preparations subsequently diluted to 50 μl with DMEM medium. DNA and liposome solutions were mixed and applied to the cells for 6 hours at 37° C., 5% CO2. Afterwards, medium was changed to DMEM containing 10% fetal calf serum. Cells were lysed after 48 h incubation at 37° C., 5% CO2. Twofold determinations each were performed. The values were averaged and the highest efficiency (optimum) within a row was given as percentage value of the highest efficiency (optimum) obtained with Lipofectamine.

[5] = X(DOPE) 0.50, without sonication
[6] = X(DOPE) 0.60, without sonication
[7] = X(DOPE) 0.70, without sonication
[8] = X(DOPE) 0.80, without sonication

## Br [10-2-10, Ethanediyl-1,2-bis(decyldimethylammonium bromide)]
HeLaS3 cells [1]; [5]
  Results (%) HeLaS3 (transfection efficiency as percentage of Lipofectamine efficiency): 216%
HeLaS3 cells [1]; [6]
  Results (%) HeLaS3 (transfection efficiency as percentage of Lipofectamine efficiency): 286%
HeLaS3 cells [1]; [7]
  Results (%) HeLaS3 (transfection efficiency as percentage of Lipofectamine efficiency): 165%
HeLaS3 cells [1]; [8]
  Results (%) HeLaS3 (transfection efficiency as percentage of Lipofectamine efficiency): 178%
Huh7 cells [2]; [5]
  Results (%) Huh7 (transfection efficiency as percentage of Lipofectamine efficiency): 142%
Huh7 cells [2]; [6]
  Results (%) Huh7 (transfection efficiency as percentage of Lipofectamine efficiency): 127%
Huh7 cells [2]; [7]
  Results (%) Huh7 (transfection efficiency as percentage of Lipofectamine efficiency): 111%
Huh7 cells [2]; [8]
  Results (%) Huh7 (transfection efficiency as percentage of Lipofectamine efficiency): 115%
HeLaS3 cells [3]; [5]
  Results (%) (optimal transfection efficiency as percentage of the highest efficiency obtained by Lipofectamine): 216%
HeLaS3 cells [3]; [6]
  Results (%) (optimal transfection efficiency as percentage of the highest efficiency obtained by Lipofectamine): 286%
HeLaS3 cells [3]; [7]
  Results (%) (optimal transfection efficiency as percentage of the highest efficiency obtained by Lipofectamine): 165%
HeLaS3 cells [3]; [8]
  Results (%) (optimal transfection efficiency as percentage of the highest efficiency obtained by Lipofectamine): 178%
Huh7 cells [4]
  Result (%) (transfection efficiency as percentage of Lipofectamine efficiency): 111% and 115%
Huh7 cells [4]; Huh7, liposome with DOPE, X(DOPE) 0.50, without sonication, 0.5 μg pCMVβ
  Result (%) (transfection efficiency as percentage of Lipofectamine efficiency): 142%
Huh7 cells [4]; Huh7, liposome with DOPE, X(DOPE) 0.60, without sonication, 0.5 μg pCMVβ
  Result (%) (transfection efficiency as percentage of Lipofectamine efficiency): 127%

## Butanediyl-1,4-bis(decyl dimethyl-ammonium bromide) [10-4-10]
HeLaS3 cells [1]; [5]
  Results (%) HeLaS3 (transfection efficiency as percentage of Lipofectamine efficiency): 200%
HeLaS3 cells [1]; [6]
  Results (%) HeLaS3 (transfection efficiency as percentage of Lipofectamine efficiency): 257%
HeLaS3 cells [1]; [7]
  Results (%) HeLaS3 (transfection efficiency as percentage of Lipofectamine efficiency): 200%
HeLaS3 cells [1]; [8]
  Results (%) HeLaS3 (transfection efficiency as percentage of Lipofectamine efficiency): 123%
Huh7 cells [2]; [5]
  Results (%) Huh7 (transfection efficiency as percentage of Lipofectamine efficiency): 76%
Huh7 cells [2]; [6]
  Results (%) Huh7 (transfection efficiency as percentage of Lipofectamine efficiency): 62%
Huh7 cells [2]; [7]
  Results (%) Huh7 (transfection efficiency as percentage of Lipofectamine efficiency): 54%
Huh7 cells [2]; [8]
  Results (%) Huh7 (transfection efficiency as percentage of Lipofectamine efficiency): 34%
